Results taken from patent publication US5766875A, “Metabolic monitoring of cells in a microplate reader” (priority 1995, dated 1998).
Structures can show the parent of a compound that is named as a salt. Where two headings read alike, the source gives them in different places.

What was measured:
[1] = Redox Indicators; cited from earlier work
[2] = system: M1WT3 cells; assay: Carbachol stimulation of M1WT3 cells, extracellular acidification rate in a THERMOmax microplate reader (Example 8); assay type: cell-based; settings: for ΔpH/Sec: mean of triplicate
Protocol: The M1WT3 cells used for the following experiments were obtained from the American Type Culture Collection (No. CRL 1985). These cells were a line of CHO-K1 cells transfected with the gene for muscarinic receptors in order to provide cells responsive to cholinergic agonists, such as Carbachol. The M1WT3 cells were grown in Ham's F12 medium with 50 μg/ml […] (Geneticin), 10% fetal bovine serum, […], 1.0 mg/L streptomycin and 1000 units/L penicillin (growing medium) under 5% CO2 at 37° C.
To initiate growth, 5×10^4 M1WT3 cell/well (200 μL/well) were sterilely plated in selected individual wells of a flat bottom 96-well microplate. The selected wells were comprised of the inner 60 wells. At least 3 of the inner wells, however, were left without cells to be used as control wells. The entire microplate then was covered with a loosely-fitting plastic cover that allowed gas exchange to the wells and the microplate was incubated at 37° C. for approximately 24 hours to allow cells to attach to bottom of each selected well with cells.
Twelve hours prior to measuring extracellular acidification the growing media was aspirated off with a vacuum system and replaced with 200 μL of starving media (growing media with 1 mg/ml bovine serum albumin in place of the 10% fetal bovine serum) and the cells were again placed under 5% CO2 at 37° C. The microplate was then incubated for 12 hours. Within 30-60 minutes prior to monitoring the rates of extracellular acidification, the starving medium was aspirated off, the wells were rinsed with approximately 200 μL simple indicator medium (Table 2 components) and then filled with 200 μL of simple indicator medium. All media was warmed to 37° C. before addition to the cells.
The light absorbance of the individual wells of the 96-well microplate was read in a THERMOmax™ microplate absorbance reader modified to record the ratio of optical density at two wavelengths (560 nm/420 nm), kinetically at 37° C. for 15 minutes with automix on. The automix feature is described in the Operator's Manual for the THERMOmax™ instrument (Catalog No. 0112-0014) of Molecular Devices Corporation, Menlo Park, Calif. The automix feature provides for uniform mixing of the contents of each well of the multiassay plate for about 5 seconds, followed by measurement of optical density at the first wavelength (in this case 560 nm) in about 5 seconds, followed by a change in interference filter in about 1 second, followed by measurement of optical density at the second wavelength (in this case 420 nm) in about 5 seconds. Thus, all optical density measurements are completed within 11 seconds following termination of the agitation step and the time elapsed for any one well between measuring the optical density at the first and second wavelengths was 6 seconds. This was the minimum time between reading optical density at the first and second wavelengths possible with the THERMOmax™ instrument. Preferably the readings at the first and second wavelengths are made simultaneously.
Additionally, the contents of the microplate wells were not agitated between reading optical density at the first and second wavelengths so that the light scattering effects of the cells tended to be the same for the optical density measurements made at the first and second wavelengths for any one well. […] The reading cycle, with agitation, measuring absorbance at the first wavelength of light, changing the filter, and reading the absorbance at the second wavelength of light, was repeated at the rate of 3 cycles per minute (i.e. every 20 seconds).
At the end of the 15 minutes the reading cycles were stopped, the microplate was removed and the media was quickly aspirated off and replaced with simple indicator media containing a cell-affecting agent, in this case 0 to 300 μM Carbachol. The reading cycles then were repeated, as above, for two consecutive 15 minute data collection periods followed by one final 30 minute data collection period. […]

[3] = Apparent pH change with temperature of buffering systems as indicated by phenol red; assay type: physicochemical; settings: phenol red pH indicator, 50 mM total buffer

In the case of `O=C1C(Cl)=CC(=Nc2ccc(O)cc2)C=C1Cl` [2,6-Dichloroindophenol Sodium Salt], the “Potential at pHOa” value [1] is given as 0.67 Volts.
In the case of `COc1cc(-c2ccc(N)c(OC)c2)ccc1N.Cl.Cl` [3,3'-Dimethoxybenzidine Dihydrochloride], the “Potential at pHOa” value [1] is given as 0.76 Volts.
For `COc1cc(-c2ccc(N)c(OC)c2)ccc1N` [3,3'-Dimethoxybenzidine], the “Potential at pHOa” value [1] is given as 0.76 Volts.
In the case of `O=S(=O)([O-])c1ccc(Nc2ccccc2)cc1.O=S(=O)([O-])c1ccc(Nc2ccccc2)cc1.[Ba+2]` [Barium Diphenylaminesulfonate], the “Potential at pHOa” value [1] is listed as 0.85 Volts.
With `C[N+](C)(C)CCOC(N)=O` [Carbachol] the “ΔProtons/Cell·Sec minus 0 Carbachol” value ([2]; 3 μM, First 15 min) was 1.00E + 07 ΔProtons/Cell·Sec, the ΔpH/Sec ([2]; 3 μM, First 15 min) was 7.1534E - 05 ΔpH/Sec and the “ΔProtons/Cell·Sec minus 0 Carbachol” value ([2]; 3 μM, Last 30 min) was 1.44E - 07 ΔProtons/Cell·Sec. For the same molecule, the ΔpH/Sec ([2]; 3 μM, Last 30 min) was 5.0490E - 05 ΔpH/Sec, the “ΔProtons/Cell·Sec minus 0 Carbachol” value ([2]; 3 μM, Second 15 min) was 1.12E - 07 ΔProtons/Cell·Sec and the ΔpH/Sec ([2]; 3 μM, Second 15 min) was 5.2542E - 05 ΔpH/Sec. For the same molecule, the “ΔProtons/Cell·Sec minus 0 Carbachol” value ([2]; 10 μM, First 15 min) was 1.44E + 07 ΔProtons/Cell·Sec, the ΔpH/Sec ([2]; 10 μM, First 15 min) was 7.5928E - 05 ΔpH/Sec and the “ΔProtons/Cell·Sec minus 0 Carbachol” value ([2]; 10 μM, Last 30 min) was 2.10E - 07 ΔProtons/Cell·Sec. The ΔpH/Sec ([2]; 10 μM, Last 30 min) was 5.7103E - 05 ΔpH/Sec, the ΔpH/Sec ([2]; 10 μM, Second 15 min) was 5.6378E - 05 ΔpH/Sec and the “ΔProtons/Cell·Sec minus 0 Carbachol” value ([2]; 30 μM, First 15 min) was 1.12E + 07 ΔProtons/Cell·Sec. The ΔpH/Sec ([2]; 30 μM, First 15 min) was 7.2713E - 05 ΔpH/Sec, the ΔpH/Sec ([2]; 30 μM, Last 30 min) was 5.7641E - 05 ΔpH/Sec and the “ΔProtons/Cell·Sec minus 0 Carbachol” value ([2]; 30 μM, Second 15 min) was 1.47E - 07 ΔProtons/Cell·Sec. For the same molecule, the ΔpH/Sec ([2]; 30 μM, Second 15 min) was 5.6101E - 05 ΔpH/Sec, the “ΔProtons/Cell·Sec minus 0 Carbachol” value ([2]; 300 μM, First 15 min) was 6.76E + 06 ΔProtons/Cell·Sec and the ΔpH/Sec ([2]; 300 μM, First 15 min) was 8.8294E - 05 ΔpH/Sec. The ΔpH/Sec ([2]; 300 μM, Last 30 min) was 5.2560E - 05 ΔpH/Sec, the “ΔProtons/Cell·Sec minus 0 Carbachol” value ([2]; 300 μM, Second 15 min) was 1.11E - 07 ΔProtons/Cell·Sec and the ΔpH/Sec ([2]; 300 μM, Second 15 min) was 5.2420E - 05 ΔpH/Sec. The activation at 3 µM ([2]; 0.25 h, 3 μM, First 15 min, read-out: % Change compared to pre-Carbachol) was 5.94%, the activation at 3 µM ([2]; 0.25 h, 3 μM, First 15 min, read-out: % Change compared to pre-Carbachol minus 0 Carbachol) was 12.6% and the activation at 10 µM ([2]; 0.25 h, 10 μM, First 15 min, read-out: % Change compared to pre-Carbachol) was 20%. The activation at 10 µM ([2]; 0.25 h, 10 μM, First 15 min, read-out: % Change compared to pre-Carbachol minus 0 Carbachol) was 26.6%, the activation at 30 µM ([2]; 0.25 h, 30 μM, First 15 min, read-out: % Change compared to pre-Carbachol) was 18.6% and the activation at 30 µM ([2]; 0.25 h, 30 μM, First 15 min, read-out: % Change compared to pre-Carbachol minus 0 Carbachol) was 25.3%. The activation at 300 µM ([2]; 0.25 h, 300 μM, First 15 min, read-out: % Change compared to pre-Carbachol) was 19.4%, the activation at 300 µM ([2]; 0.25 h, 300 μM, First 15 min, read-out: % Change compared to pre-Carbachol minus 0 Carbachol) was 26.1% and the activation at 3 µM ([2]; 0.5 h, 3 μM, Last 30 min, read-out: % Change compared to pre-Carbachol) was -25.2%. For the same molecule, the activation at 3 µM ([2]; 0.5 h, 3 μM, Last 30 min, read-out: % Change compared to pre-Carbachol minus 0 Carbachol) was 20%, the activation at 3 µM ([2]; 0.5 h, 3 μM, Second 15 min, read-out: % Change compared to pre-Carbachol) was -22.2% and the activation at 3 µM ([2]; 0.5 h, 3 μM, Second 15 min, read-out: % Change compared to pre-Carbachol minus 0 Carbachol) was 15%. It also gave an activation at 10 µM ([2]; 0.5 h, 10 μM, Last 30 min, read-out: % Change compared to pre-Carbachol) of -9.77%, an activation at 10 µM ([2]; 0.5 h, 10 μM, Last 30 min, read-out: % Change compared to pre-Carbachol minus 0 Carbachol) of 35.5% and an activation at 10 µM ([2]; 0.5 h, 10 μM, Second 15 min, read-out: % Change compared to pre-Carbachol) of -10.9%. It also gave an activation at 10 µM ([2]; 0.5 h, 10 μM, Second 15 min, read-out: % Change compared to pre-Carbachol minus 0 Carbachol) of 26.3%, an activation at 30 µM ([2]; 0.5 h, 30 μM, Last 30 min, read-out: % Change compared to pre-Carbachol) of -5.63% and an activation at 30 µM ([2]; 0.5 h, 30 μM, Last 30 min, read-out: % Change compared to pre-Carbachol minus 0 Carbachol) of 39.6%. For the same molecule, the activation at 30 µM ([2]; 0.5 h, 30 μM, Second 15 min, read-out: % Change compared to pre-Carbachol) was -8.46%, the activation at 30 µM ([2]; 0.5 h, 30 μM, Second 15 min, read-out: % Change compared to pre-Carbachol minus 0 Carbachol) was 28.8% and the activation at 300 µM ([2]; 0.5 h, 300 μM, Last 30 min, read-out: % Change compared to pre-Carbachol) was -8.08%. For the same molecule, the activation at 300 µM ([2]; 0.5 h, 300 μM, Last 30 min, read-out: % Change compared to pre-Carbachol minus 0 Carbachol) was 37.2%, the activation at 300 µM ([2]; 0.5 h, 300 μM, Second 15 min, read-out: % Change compared to pre-Carbachol) was -8.33% and the activation at 300 µM ([2]; 0.5 h, 300 μM, Second 15 min, read-out: % Change compared to pre-Carbachol minus 0 Carbachol) was 28.9%.
With `O=C(O)CC(O)(CC(=O)O)C(=O)O` [Citrate buffer] the “apparent change in pH with change in temperature” value (“apparent change in pH with change” for short) ([3]; with 1.0M NaCl added) was 8.06 millipH/°C.
In the case of `O.O.[C-]#N.[C-]#N.[Fe+2].c1cnc2c(c1)ccc1cccnc12.c1cnc2c(c1)ccc1cccnc12` [Dicyanobis(1,10-phenanthroline)Iron], the “Potential at pHOa” value [1] is listed as 1.41 Volts.
For `c1ccc(Nc2ccccc2)cc1` [Diphenylamine], the “Potential at pHOa” value [1] is listed as 0.76 Volts.
With `O=C(O)CN(CCN(CC(=O)O)CC(=O)O)CC(=O)O` [EDTA, Ethylenedinitrilo-Tetraacetic Acid] the “apparent change in pH with change” value ([3]; equilibrium with CO2 in air) was “less than 1 millipH/°C”.
In the case of `O=S(=O)(O)CCN1CCN(CCO)CC1` [HEPES, N-[2-Hydroxyethyl]piperazine-N'-[2-ethanesulfonic acid]], the “apparent change in pH with change” value ([3]; equilibrium with CO2 in air) is reported as -3.92 millipH/°C.
For `O=S(=O)(O)CCN1CCOCC1` [MES, 2-[N-Morpholino]ethanesulfonic acid], the “apparent change in pH with change” value ([3]; equilibrium with CO2 in air) was -4.74 millipH/°C.
With `O=S(=O)(O)CCCN1CCOCC1` [MOPS, 3-[N-Morpholino]propanesulfonic acid] the “apparent change in pH with change” value ([3]; equilibrium with CO2 in air) was “less than 1 millipH/°C”.
For `CN(C)c1ccc2nc3ccc(=[N+](C)C)cc-3sc2c1` [Methylene Blue], the “Potential at pHOa” value [1] is given as 0.53 Volts.
For `CN(C)c1ccc(N)cc1` [N,N-Dimethyl-p-phenylanediamine], the “Potential at pHOa” value [1] is listed as 0.76 Volts.
For `CN(C)c1ccc(N=C2C=CC(=O)C=C2)cc1` [N,N-Dimethylindoaniline], the “Potential at pHOa” value [1] is listed as 0.22 Volts.
In the case of `COc1ccc(Nc2ccc(N)cc2)cc1` [N-(p-Methoxyphenyl)-p-phenylanediamine Hydrochloride], the “Potential at pHOa” value [1] is given as 0.71 Volts.
For `O=C(O)c1ccccc1Nc1ccccc1` [N-Phenylanthranilic Acid], the “Potential at pHOa” value [1] is given as 1.08 Volts.
In the case of `Cc1cc2nc3ccc(N(C)C)cc3nc2cc1N` [Neutral Red], the “Potential at pHOa” value [1] is given as -0.24 Volts.
For `CC[N+](CC)=c1ccc2nc3c(cc(N)c4ccccc43)oc-2c1` [Nile Blue A], the “Potential at pHOa” value [1] is listed as 0.29 Volts.
With `O=S(=O)(O)CCCNC(CO)(CO)CO` [TAPS, 3-{[tris-(hydroxymethyl)-methyl]-amino}-propanesulfonicacid] the “apparent change in pH with change” value ([3]; equilibrium with CO2 in air) was -12.07 millipH/°C.
For `Nc1ccc2nc3ccc(N)cc3[s+]c2c1` [Thionin], the “Potential at pHOa” value [1] is given as 0.56 Volts.
For `O=S(=O)([O-])[O-].[Fe+2].c1cnc2c(c1)ccc1cccnc12.c1cnc2c(c1)ccc1cccnc12.c1cnc2c(c1)ccc1cccnc12` [Tris(1,10-phenanthroline)Iron(R) Sulfate], the “Potential at pHOa” value [1] is listed as 1.14 Volts.
In the case of `CCN=C1C=CC(=C(c2ccc(NCC)c(C)c2)c2ccc(S(=O)(=O)O)cc2S(=O)(=O)O)C=C1C` [Xylene Cyanol FF], the “Potential at pHOa” value [1] is listed as 1.00 Volts.
For `Cc1cc(-c2ccc(N)c(C)c2)ccc1N` [o-Tolidine], the “Potential at pHOa” value [1] is given as 0.87 Volts.
For `CCOc1ccc(N=Nc2ccc(N)cc2N)cc1` [p-Ethoxyphenylazo-m-phenylanediamine Monohydrochloride], the “Potential at pHOa” value [1] is listed as 0.76 Volts.
In the case of Brilliant Cresyl Blue, the “Potential at pHOa” value [1] is listed as 0.58 Volts.
For Diphenylaminosulfonic Acid Sodium Salt, the “Potential at pHOa” value [1] is listed as 0.85 Volts.
In the case of N,N-Diphenylbenzidine, the “Potential at pHOa” value [1] is given as 0.76 Volts.
